{
  "source": "paper PMC8969271",
  "about": "“Release of moth pheromone compounds from Nicotiana benthamiana upon transient expression of heterologous biosynthetic genes” (BMC Biology, 2022)",
  "type_in_all_cases": "cell-based",
  "key": {"[1]": {"biological_target": "T1, CsupKPSE (Chilo suppressalis, UniProt A0A5Q0V425)", "T1 construct": "full-length ORF 1059 nt, 353 aa; synthesized gene; expressed in S. cerevisiae ole1/elo1 and N. benthamiana leaves", "T1 sequence (A0A5Q0V425 20-371)": "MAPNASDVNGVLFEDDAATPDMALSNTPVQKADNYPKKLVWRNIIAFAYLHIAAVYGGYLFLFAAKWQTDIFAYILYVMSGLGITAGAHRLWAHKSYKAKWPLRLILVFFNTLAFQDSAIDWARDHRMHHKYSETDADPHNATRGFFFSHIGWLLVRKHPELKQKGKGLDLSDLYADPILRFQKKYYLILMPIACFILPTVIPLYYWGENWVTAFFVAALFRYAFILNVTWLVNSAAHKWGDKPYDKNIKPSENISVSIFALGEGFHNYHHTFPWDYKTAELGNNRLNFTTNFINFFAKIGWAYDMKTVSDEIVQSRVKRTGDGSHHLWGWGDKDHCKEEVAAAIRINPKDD", "assay": "heterologous expression in yeast and N. benthamiana, GC/MS of fatty acid methyl esters", "conditions": "endogenous palmitic acid (acyl form in cells, presumably acyl-CoA); product (Z)-9-hexadecenoic acid"}, "[2]": {"biological_target": "T2, CsupFAR2 (Chilo suppressalis, UniProt A0A3S2LS93)", "T2 construct": "full-length ORF 1404 nt, 468 aa; synthesized gene; expressed in S. cerevisiae INVSc (pYES52) and N. benthamiana leaves", "T2 sequence (A0A3S2LS93 1-468)": "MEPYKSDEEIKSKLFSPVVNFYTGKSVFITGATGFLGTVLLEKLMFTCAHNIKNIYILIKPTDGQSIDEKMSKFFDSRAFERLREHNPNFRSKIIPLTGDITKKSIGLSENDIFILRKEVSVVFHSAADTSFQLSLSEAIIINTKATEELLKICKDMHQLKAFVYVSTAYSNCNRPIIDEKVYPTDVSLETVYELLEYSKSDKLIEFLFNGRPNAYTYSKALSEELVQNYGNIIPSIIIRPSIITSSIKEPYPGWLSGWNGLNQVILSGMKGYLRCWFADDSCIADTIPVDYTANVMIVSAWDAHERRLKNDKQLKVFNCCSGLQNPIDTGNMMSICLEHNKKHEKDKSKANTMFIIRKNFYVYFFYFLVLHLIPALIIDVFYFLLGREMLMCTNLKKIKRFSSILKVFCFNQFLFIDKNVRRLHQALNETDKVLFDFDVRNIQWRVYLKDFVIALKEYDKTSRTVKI", "assay": "co-expression with CsupKPSE in N. benthamiana leaves, GC/MS of fatty alcohols", "conditions": "acyl form in cells, presumably acyl-CoA; product (Z)-9-hexadecenol"}, "[3]": {"biological_target": "T3, ATF1 (Saccharomyces cerevisiae, UniProt P40353)", "T3 construct": "expressed transiently in N. benthamiana leaves with AtrΔ11, CpuFatB1, CsupYPAQ and CsupFAR2", "T3 sequence (P40353 1-525)": "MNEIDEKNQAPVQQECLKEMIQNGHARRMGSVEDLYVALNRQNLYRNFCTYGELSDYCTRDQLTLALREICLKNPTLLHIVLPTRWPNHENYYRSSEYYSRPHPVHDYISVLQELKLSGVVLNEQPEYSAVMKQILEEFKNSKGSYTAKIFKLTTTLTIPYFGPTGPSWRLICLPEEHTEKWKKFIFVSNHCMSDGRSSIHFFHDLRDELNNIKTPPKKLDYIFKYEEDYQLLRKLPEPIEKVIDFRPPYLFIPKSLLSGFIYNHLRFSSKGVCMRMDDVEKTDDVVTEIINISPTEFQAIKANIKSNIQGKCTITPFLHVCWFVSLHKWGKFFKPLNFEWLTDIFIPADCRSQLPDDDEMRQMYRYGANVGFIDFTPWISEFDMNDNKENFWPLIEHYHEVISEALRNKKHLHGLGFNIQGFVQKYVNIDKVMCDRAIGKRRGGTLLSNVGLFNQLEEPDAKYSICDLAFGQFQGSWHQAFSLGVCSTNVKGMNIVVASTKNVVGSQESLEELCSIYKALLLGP", "assay": "co-expression with desaturases and CsupFAR2 in N. benthamiana leaves, SPME and GC/MS", "conditions": "endogenous acetyl donor; product (Z)-11-hexadecenyl acetate"}, "[4]": {"biological_target": "T2, CsupFAR2", "assay": "heterologous expression in yeast and N. benthamiana, GC/MS of fatty alcohols", "conditions": "yeast supplemented with methyl (Z)-11-hexadecenoate or co-expressing CsupYPAQ; acyl form in cells, presumably acyl-CoA; product (Z)-11-hexadecenol"}},
  "data": [
    {"smiles": "CCCCCCCCCCCCCCCC(=O)O", "note": "[16:acid, palmitic acid]", "values": [
      {"measurement": "heterologous expression in yeast and N. benthamiana, GC/MS of fatty acid methyl", "setting": "[1]", "value": "CsupKPSE producing Z9-16:acid, the precursor of the minor pheromone component from palmitic acid"}
    ]},
    {"smiles": "CCCCCC/C=C\\CCCCCCCC(=O)O", "note": "[Z9-16:acid, (Z)-9-hexadecenoic acid]", "values": [
      {"measurement": "co-expression with CsupKPSE in N. benthamiana leaves, GC/MS of fatty alcohols", "setting": "[2]", "value": "a minor amount of (Z)-9-hexadecenol (Z9-16:OH) was produced"}
    ]},
    {"smiles": "CCCC/C=C\\CCCCCCCCCCO", "note": "[Z11-16:OH, (Z)-11-hexadecenol]", "values": [
      {"measurement": "co-expression with desaturases and CsupFAR2 in N. benthamiana leaves, SPME and G", "setting": "[3]", "value": "Upon co-expression of the acetyltransferase gene ATF1, Z11-16:OAc was also released together with Z11-16:OH"}
    ]},
    {"smiles": "CCCC/C=C\\CCCCCCCCCC(=O)O", "note": "[Z11-16:acid, (Z)-11-hexadecenoic acid]", "values": [
      {"measurement": "heterologous expression in yeast and N. benthamiana, GC/MS of fatty alcohols", "setting": "[4]", "value": "it reduced the C. suppressalis pheromone precursors Z11-16:acid, Z9-16:acid"}
    ]}
  ]
}
